Molecules are shown by their SMILES. Structures can show the parent of a compound that is named as a salt.

By melting point is commonly meant the temperature of the solid-liquid transition.

Turning to `O=S(=O)(c1ccccc1Cl)c1c[nH]c2c(N3CCNCC3)cccc12` [compound 108, 3-(2-chloro-benzenesulfonyl)-7-piperazin-1-yl-1H-indole], the melting point was in the range of 280 to 282 °C.
On to `Cn1cc(S(=O)(=O)c2ccccc2Cl)c2cccc(N3CCNCC3)c21` [compound 407, 3-(2-chloro-benzenesulfonyl)-1-methyl-7-piperazin-1-yl-1H-indole], for which the melting point was 295 to 297 °C.
For the compound `Cn1cc(S(=O)(=O)c2cccc(C(F)(F)F)c2)c2cccc(N3CCNCC3)c21` [compound 406, 1-methyl-7-piperazin-1-yl-3-(3-trifluoromethyl-benzenesulfonyl)-1H-indole], the melting point was in the range of 279 to 280 °C.
Take `Cn1cc(S(=O)(=O)c2ccccn2)c2cccc(N3CCNCC3)c21` [compound 402, 1-methyl-7-piperazin-1-yl-3-(pyridine-2-sulfonyl)-1H-indole]: the melting point is 297 to 298 °C.
Compound `O=S(=O)(c1cccc(Cl)c1)c1c[nH]c2c(N3CCNCC3)cccc12` [compound 107, 3-(3-chloro-benzenesulfonyl)-7-piperazin-1-yl-1H-indole] returned a melting point of 295 °C.
`Cc1ccc(S(=O)(=O)c2c[nH]c3c(N4CCNCC4)cccc23)cc1` [compound 102, 7-piperazin-1-yl-3-(toluene-4-sulfonyl)-1H-indole]: the melting point was 285 to 287 °C.
`CN1CCN(c2cccc3c(S(=O)(=O)c4ccccc4)c[nH]c23)CC1` (as salt: hydrochloride) [compound 501, 3-benzenesulfonyl-7-(4-methyl-piperazin-1-yl)-1H-indole] came in with a melting point of 160 to 162 °C.
As to `CN1CCN(c2cccc3c(S(=O)(=O)c4ccc(Cl)c(Cl)c4)c[nH]c23)CC1` [compound 503, 3-(3,4-dichloro-benzenesulfonyl)-7-(4-methyl-piperazin-1-yl)-1H-indole], the melting point fell in the range of 196 to 203 °C.
In turn, `CCN1CCN(c2cccc3c(S(=O)(=O)c4ccccc4)c[nH]c23)CC1` [compound 513, 3-benzenesulfonyl-7-(4-ethyl-piperazin-1-yl)-1H-indole] registered a melting point of 274 to 275 °C.
The figure for `O=S(=O)(c1ccc(Cl)cc1)c1c[nH]c2ccc(N3CCNCC3)cc12` [compound 204, 3-(4-chloro-benzenesulfonyl)-5-piperazin-1-yl-1H-indole] is 282 to 286.4 °C; for `O=S(=O)(c1ccncc1)c1c[nH]c2c(N3CCNCC3)cccc12` it is 207 to 208 °C.
The compound `CN1CCN(c2cccc3c(S(=O)(=O)c4ccccc4)cn(C)c23)CC1` [compound 502, 3-benzenesulfonyl-1-methyl-7-(4-methyl-piperazin-1-yl)-1H-indole] returned a melting point of 260 to 262 °C.

Source of the values: patent publication US6787535B2, “Indole derivatives with 5HT6 receptor affinity” (Syntex (U.S.A.) LLC, priority 2001, dated 2004).
